Source: patent publication US20240190841A1, “MODULATORS OF BCL6 PROTEOLYSIS AND ASSOCIATED METHODS OF USE” (Arvinas Operations, Inc., priority 2022, published 2024)

Target: T1, BCL6 (Homo sapiens, UniProt P41182)
T1 construct: endogenous in cells; host or cells: T47D breast cancer epithelial cells
Experiment: Immunofluorescence high content imaging of BCL6 degradation in T47D cells
Type: cell-based
Conditions: T47D breast cancer epithelial cells, 3 days incubation
Procedure: Immunofluorescence Protocol for High Content Imaging of BCL6
T47D cells were seeded in 100 μl volume of RPMI11640-10% FBS in a 96-well black/clear bottom plates for adherent lines (Corning #3904).
Day 1. T47D breast cancer epithelial cells were seeded at a density so that confluence is ˜70-90% at endpoint. Cells were seeded at 7K/0.1 mL/well the morning prior to the addition of exemplary bifunctional degradation compounds.
Day 2. Prepare an 11 point 3-fold serial dilution of exemplary bifunctional compound in DMSO and aliquot an appropriate volume to cell growth media to generate a 2× final concentration of exemplary bifunctional compound. Add an equal volume (0.1 ml) of 2× exemplary bifunctional compound/media mix to previously plated cells, for a final top concentration in aqueous cell growth media of 0.1 or 1 μM. Incubate for 3 days at 37° C., 5% CO2.
Day 5 Immunofluorescence. Discard cell media. Wash wells with 200 μl of room temperature phosphate-buffered saline (PBS). Prepared 4% paraformaldehyde (PFA) from 16% PFA (Electron Microscopy Sciences #15710) using 1×PBS. Fifty μL of 4% PF was added to each well and incubate for 15 minutes at room temperature to fix the cells. The PFA was aspirated and the cells washed twice with PBS (200 μL)).
Prepared 0.1% Triton X-100 in PBS using 10% triton X-100 stock. The cells were permeabilized by adding 100 μL of the 0.1% Triton X-100 in PBS to each well to permeabilize cells and incubating at room temperature for 15 minutes. Cells were washed twice with PBS.
Prepared 3% BSA/PBS (from Thermofisher #37515 Blocker BSA in TBS, 10%), and 100 μL was added to each well. The cells were incubated for at least 1 hour at room temperature.
Prepared 1% BSA/PBS using Blocker BSA/PBS, and the 3% BSA/PBS removed from the wells.
For no primary antibody controls, 50 μL 1% BSA/PBS was added.
Primary antibody (BCL6 Rb Ab, CST-14895, Cell Signaling) was diluted 1:300 in 1% BSA/PBS using Blocker BSA/PBS.
Fifty μl of primary antibody added to all remaining wells (i.e., all wells other than the primary antibody controls) and the cells were incubated overnight at 4° C. with slow orbital movement.
Day 6. Contents of the wells was removed and the cells washed four times with 200 μL PBS. 1% BSA/PBS was prepared using Blocker BSA in PBS.
Diluted secondary antibody goat anti-Rb IgG Alexa-488 1:1000, and cell mask-Alexa-647 1:3000 in 1% BSA/PBS in the same mix. Add 50 μL to each well and incubate at room temperature for 1 hour in the dark.
Cells were washed three times with 200 μL PBS, and then incubated for 10 minutes with 100 μL Hoechst dye at 1 μg/mL (20 mM stock) to stain cell nuclei. Wells were then washed with 200 μl PBS, and 100 μL of PBS was added to each well and the plate covered plate with a plastic opaque cover. Plates were stored at […] and covered in aluminum foil until imaged.
Plates were equilibrated to room temperature prior to reading. The bottom of the plate was wiped with 70% isopropanol immediately prior to imaging.
Imaging: • 10×, 4 fields/well, include Top hat smoothing in the analysis protocol.
Supplies/Reagents: • 16% paraformaldehyde: Electron Microscopy Sciences #15710 • Hoechst: Thermofisher #62249 • Blocker BSA in PBS, 10%: Thermofisher #37515 • Blocker BSA in TBS, 10%: Thermofisher #37520 • Goat anti-rabbit or mouse AlexaFluor-488: Thermofisher #A11008 • Cell mask deep red AlexaFluor-647: Thermofisher #C10046 • Wash buffer, PBS: 20×PBS, Thermofisher

| Structure (SMILES) | DC50 | Dmax |
| --- | --- | --- |
| CNC(=O)COc1cc2cc(Nc3nc(N4CCC(O[C@H]5C[C@H](N6CCN(c7ccc8c(ccn8C8CCC(=O)NC8=O)c7)CC6)C5)CC4)ncc3Cl)ccc2n(C(C)C)c1=O (stereo partly shown) [Compound 17, 2-({6-[(5-chloro-2-{4-[(1r,3r)-3-{4-[1-(2,6-dioxopiperidin-3-yl)-1H-indol-5-yl]piperazin-1-yl}cyclobutoxy]piperidin-1-yl}pyrimidin-4-yl)amino]-2-oxo-1-(propan-2-yl)-1,2-dihydroquinolin-3-yl}oxy)-N-methylacetamide] | < 10 nM | ≥ 70% |
| CNC(=O)COc1cc2cc(Nc3nc(N4CCC(O[C@H]5C[C@H](N6CCN(c7ccc8c(c7)n(C)c(=O)n8C7CCC(=O)NC7=O)[C@@H](C)C6)C5)CC4)ncc3Cl)ccc2n(C(C)C)c1=O (stereo partly drawn) [Compound 18, 2-({6-[(5-chloro-2-{4-[(1r,3r)-3-[(3S)-4-[1-(2,6-dioxopiperidin-3-yl)-3-methyl-2-oxo-2,3-dihydro-1H-1,3-benzodiazol-5-yl]-3-methylpiperazin-1-yl]cyclobutoxy]piperidin-1-yl}pyrimidin-4-yl)amino]-2-oxo-1-(propan-2-yl)-1,2-dihydroquinolin-3-yl}oxy)-N-methylacetamide] | < 10 nM | ≥ 70% |
| CNC(=O)COc1cc2cc(Nc3nc(N4CCC(O[C@H]5C[C@H](N6CCN(c7ccc8c(c7C)n(C)c(=O)n8C7CCC(=O)NC7=O)CC6)C5)CC4)ncc3Cl)ccc2n(C(C)C)c1=O (stereo partly shown) [Compound 19, 2-({6-[(5-chloro-2-{4-[(1r,3r)-3-{4-[1-(2,6-dioxopiperidin-3-yl)-3,4-dimethyl-2-oxo-2,3-dihydro-1H-1,3-benzodiazol-5-yl]piperazin-1-yl}cyclobutoxy]piperidin-1-yl}pyrimidin-4-yl)amino]-2-oxo-1-(propan-2-yl)-1,2-dihydroquinolin-3-yl}oxy)-N-methylacetamide] | < 10 nM | ≥ 70% |
| CNC(=O)COc1cc2cc(Nc3nc(N4CCC(O[C@H]5C[C@H](N6CCN(c7cc8c(cc7C)n(C7CCC(=O)NC7=O)c(=O)n8C)CC6)C5)CC4)ncc3Cl)ccc2n(C(C)C)c1=O (stereo partly shown) [Compound 20, 2-({6-[(5-chloro-2-{4-[(1r,3r)-3-{4-[1-(2,6-dioxopiperidin-3-yl)-3,6-dimethyl-2-oxo-2,3-dihydro-1H-1,3-benzodiazol-5-yl]piperazin-1-yl}cyclobutoxy]piperidin-1-yl}pyrimidin-4-yl)amino]-2-oxo-1-(propan-2-yl)-1,2-dihydroquinolin-3-yl}oxy)-N-methylacetamide] | < 10 nM | ≥ 70% |
| CNC(=O)COc1cc2cc(Nc3nc(N4CCC(O[C@H]5C[C@H](N6CCN(c7ccc8c(cnn8C8CCC(=O)NC8=O)c7)CC6)C5)CC4)ncc3Cl)ccc2n(C(C)C)c1=O (stereo partly shown) [Compound 21, 2-({6-[(5-chloro-2-{4-[(1r,3r)-3-{4-[1-(2,6-dioxopiperidin-3-yl)-1H-indazol-5-yl]piperazin-1-yl}cyclobutoxy]piperidin-1-yl}pyrimidin-4-yl)amino]-2-oxo-1-(propan-2-yl)-1,2-dihydroquinolin-3-yl}oxy)-N-methylacetamide] | < 10 nM | ≥ 70% |
| CNC(=O)COc1cc2cc(Nc3nc(N4CCC(O[C@H]5C[C@H](N6CCN(c7ccc8nn(C9CCC(=O)NC9=O)cc8c7)CC6)C5)CC4)ncc3Cl)ccc2n(C(C)C)c1=O (stereo partly shown) [Compound 22, 2-({6-[(5-chloro-2-{4-[(1r,3r)-3-{4-[2-(2,6-dioxopiperidin-3-yl)-2H-indazol-5-yl]piperazin-1-yl}cyclobutoxy]piperidin-1-yl}pyrimidin-4-yl)amino]-2-oxo-1-(propan-2-yl)-1,2-dihydroquinolin-3-yl}oxy)-N-methylacetamide] | 10 to 50 nM | 50 to 70% |
| CNC(=O)COc1cc2cc(Nc3nc(N4CCC(O[C@H]5C[C@H](N6CCN(c7ccc8c(c7)ncn8C7CCC(=O)NC7=O)CC6)C5)CC4)ncc3Cl)ccc2n(C(C)C)c1=O (stereo partly shown) [Compound 23] | < 10 nM | 50 to 70% |
| CNC(=O)COc1cc2cc(Nc3nc(N4CCC(O[C@H]5C[C@H](N6CCN(c7ccc8ncn(C9CCC(=O)NC9=O)c8c7)CC6)C5)CC4)ncc3Cl)ccc2n(C(C)C)c1=O (stereo partly shown) [Compound 24, 2-({6-[(5-chloro-2-{4-[(1r,3r)-3-{4-[1-(2,6-dioxopiperidin-3-yl)-1H-1,3-benzodiazol-6-yl]piperazin-1-yl}cyclobutoxy]piperidin-1-yl}pyrimidin-4-yl)amino]-2-oxo-1-(propan-2-yl)-1,2-dihydroquinolin-3-yl}oxy)-N-methylacetamide] | < 10 nM | ≥ 70% |
| CNC(=O)COc1cc2cc(Nc3nc(N4CCC(O[C@H]5C[C@H](N6CCN(c7cc(OC)c8c(c7)n(C)c(=O)n8C7CCC(=O)NC7=O)CC6)C5)CC4)ncc3Cl)ccc2n(C(C)C)c1=O (stereo partly shown) [Compound 25, 2-({6-[(5-chloro-2-{4-[(1r,3r)-3-{4-[1-(2,6-dioxopiperidin-3-yl)-7-methoxy-3-methyl-2-oxo-2,3-dihydro-1H-1,3-benzodiazol-5-yl]piperazin-1-yl}cyclobutoxy]piperidin-1-yl}pyrimidin-4-yl)amino]-2-oxo-1-(propan-2-yl)-1,2-dihydroquinolin-3-yl}oxy)-N-methylacetamide] | < 10 nM | – |
| CNC(=O)COc1cc2cc(Nc3nc(N4CCC(O[C@H]5C[C@H](N6CCN(c7cc(C)c8c(c7)n(C)c(=O)n8C7CCC(=O)NC7=O)CC6)C5)CC4)ncc3Cl)ccc2n(C(C)C)c1=O (stereo partly shown) [Compound 26, 2-({6-[(5-chloro-2-{4-[(1r,3r)-3-{4-[1-(2,6-dioxopiperidin-3-yl)-3,7-dimethyl-2-oxo-2,3-dihydro-1H-1,3-benzodiazol-5-yl]piperazin-1-yl}cyclobutoxy]piperidin-1-yl}pyrimidin-4-yl)amino]-2-oxo-1-(propan-2-yl)-1,2-dihydroquinolin-3-yl}oxy)-N-methylacetamide] | 10 to 50 nM | 50 to 70% |
| CNC(=O)COc1cc2cc(Nc3nc(N4CCC(O[C@H]5C[C@H](N6CCN(c7cc(F)c8c(c7F)n(C)c(=O)n8C7CCC(=O)NC7=O)CC6)C5)CC4)ncc3Cl)ccc2n(C(C)C)c1=O (stereo partly shown) [Compound 27, 2-({6-[(5-chloro-2-{4-[(1r,3r)-3-{4-[1-(2,6-dioxopiperidin-3-yl)-4,7-difluoro-3-methyl-2-oxo-2,3-dihydro-1H-1,3-benzodiazol-5-yl]piperazin-1-yl}cyclobutoxy]piperidin-1-yl}pyrimidin-4-yl)amino]-2-oxo-1-(propan-2-yl)-1,2-dihydroquinolin-3-yl}oxy)-N-methylacetamide] | < 10 nM | ≥ 70% |
| CNC(=O)COc1cc2cc(Nc3nc(N4CCC(O[C@H]5C[C@H](N6CCN(c7ccc8c(c7F)n(C(C)C)c(=O)n8C7CCC(=O)NC7=O)CC6)C5)CC4)ncc3Cl)ccc2n(C(C)C)c1=O (stereo partly shown) [Compound 28, 2-({6-[(5-chloro-2-{4-[(1r,3r)-3-{4-[1-(2,6-dioxopiperidin-3-yl)-4-fluoro-2-oxo-3-(propan-2-yl)-2,3-dihydro-1H-1,3-benzodiazol-5-yl]piperazin-1-yl}cyclobutoxy]piperidin-1-yl}pyrimidin-4-yl)amino]-2-oxo-1-(propan-2-yl)-1,2-dihydroquinolin-3-yl}oxy)-N-methylacetamide] | < 10 nM | ≥ 70% |
| CNC(=O)COc1cc2cc(Nc3nc(N4CCC(O[C@H]5C[C@H](N6CCN(c7cc(F)c8c(c7)n(C(C)C)c(=O)n8C7CCC(=O)NC7=O)CC6)C5)CC4)ncc3Cl)ccc2n(C(C)C)c1=O (stereo partly shown) [Compound 29, 2-({6-[(5-chloro-2-{4-[(1r,3r)-3-{4-[1-(2,6-dioxopiperidin-3-yl)-7-fluoro-2-oxo-3-(propan-2-yl)-2,3-dihydro-1H-1,3-benzodiazol-5-yl]piperazin-1-yl}cyclobutoxy]piperidin-1-yl}pyrimidin-4-yl)amino]-2-oxo-1-(propan-2-yl)-1,2-dihydroquinolin-3-yl}oxy)-N-methylacetamide] | < 10 nM | ≥ 70% |
